Laboratory results taken from patent US7241791B2, “Substituted 4-(indazol-3-yl)phenols” (Wyeth, priority 2002, dated 2007).

How the values were obtained:
[1] = molecular target: T1, human ERα (Homo sapiens, UniProt P03372); test: IL-6 expression (ELISA, ER/IL-6) in Ad5-wt-hERα infected HAECT-1 cells; details: for ER/IL-6 % E2: efficacy relative to the maximal inhibition observed with E2
T1 sequence (P03372 1-595): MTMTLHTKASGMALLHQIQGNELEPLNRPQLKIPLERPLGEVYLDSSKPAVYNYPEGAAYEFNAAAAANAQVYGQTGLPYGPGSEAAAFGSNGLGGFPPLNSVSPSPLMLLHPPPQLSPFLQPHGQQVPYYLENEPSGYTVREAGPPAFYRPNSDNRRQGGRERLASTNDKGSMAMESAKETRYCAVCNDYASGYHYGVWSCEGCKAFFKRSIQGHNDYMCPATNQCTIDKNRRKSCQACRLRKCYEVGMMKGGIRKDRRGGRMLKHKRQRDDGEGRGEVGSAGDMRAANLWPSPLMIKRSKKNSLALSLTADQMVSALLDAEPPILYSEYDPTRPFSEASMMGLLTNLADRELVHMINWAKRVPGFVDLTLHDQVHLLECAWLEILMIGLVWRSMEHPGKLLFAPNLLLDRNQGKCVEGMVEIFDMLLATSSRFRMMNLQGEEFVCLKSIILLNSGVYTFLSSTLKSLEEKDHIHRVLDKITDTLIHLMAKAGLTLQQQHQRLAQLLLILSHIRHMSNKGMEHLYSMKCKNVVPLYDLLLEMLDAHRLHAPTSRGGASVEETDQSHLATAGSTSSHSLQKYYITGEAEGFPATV

[2] = molecular target: T1, human ERα; test: Creatine kinase expression (ER/CK) in Ad5-wt-hERα infected HAECT-1 cells; details: for ER/CK % E2: efficacy relative to the maximal stimulation observed with E2
[3] = molecular target: T1, human ERα; test: NF-κB luciferase reporter (ER/NF-KB-luc) in Ad5-wt-hERα infected HAECT-1 cells; details: for IC50: ER/NF-KB-luc IC50, Ad5-wt-ER infected HAECT-1 cells, IL-1β; for Emax: HAECT1, read-out: ER/NF-KB-luc % E2, efficacy relative to the maximal inhibition observed with E2

Row | Compound | IC50 [1] [nM] | ER/IL-6 % E2 [1] [% E2] | EC50 [2] [nM] | ER/CK % E2 [2] [% E2] | IC50 [3] [nM] | Emax [3] [%]
1 | Cn1nc(-c2ccc(O)cc2)c2cccc(Cl)c21 [Example 126, 4-(7-chloro-1-methyl-1H-indazol-3-yl)phenol] | 122 | 52 | 387 | 52 | 134 | 85
2 | Cn1nc(-c2ccc(O)cc2)c2cccc(C(F)(F)F)c21 [Example 169, 4-[1-methyl-7-(trifluoromethyl)-1H-indazol-3-yl]phenol] | 65 | 65 | 364 | 38 | 65 | 69
3 | Oc1ccc(-c2nn(-c3ccccc3Cl)c3cc(O)ccc23)c(O)c1 [Example 16, 4-[1-(2-chlorophenyl)-6-hydroxy-1H-indazol-3-yl]benzene-1,3-diol] | 81 | 58 | 438 | 45 | 95 | 79
4 | COc1ccc(-n2nc(-c3ccc(O)cc3O)c3ccc(O)cc32)cc1 [Example 11, 4-[6-hydroxy-1-(4-methoxyphenyl)-1H-indazol-3-yl]benzene-1,3-diol] | 2320 | 91 | 114 | 26 | 60 | 54
5 | Oc1ccc(-c2nn(Cc3ccccc3)c3c(Cl)cccc23)c(O)c1 [Example 149, 4-(1-benzyl-7-chloro-1H-indazol-3-yl)benzene-1,3-diol] | 115 | 49 | 527 | 30 | 319 | 67
6 | COc1ccccc1-n1nc(-c2ccc(O)cc2O)c2ccc(O)cc21 [Example 12, 4-[6-hydroxy-1-(2-methoxyphenyl)-1H-indazol-3-yl]benzene-1,3-diol] | 7610 | 73 | 1200 | 58 | 208 | 61
7 | Oc1ccc(-c2n[nH]c3cc(Cl)c(F)cc23)cc1 [Example 131, 4-(6-chloro-5-fluoro-1H-indazol-3-yl)phenol] | 380 | 72 | 815 | 65 | 195 | 82
8 | N#Cc1ccc(-n2nc(-c3ccc(O)cc3O)c3ccc(O)cc32)cc1 [Example 15, 4-[3-(2,4-dihydroxyphenyl)-6-hydroxy-1H-indazol-1-yl]benzonitrile] | 8130 | 110 | – | – | 164 | 94
9 | Oc1ccc(-c2nn(-c3cccc(Br)c3)c3cc(O)ccc23)c(O)c1 [Example 14, 4-[1-(3-bromophenyl)-6-hydroxy-1H-indazol-3-yl]benzene-1,3-diol] | 761 | 67 | – | – | 53 | 73
10 | CCCCn1nc(-c2ccc(O)cc2)c2ccccc21 [Example 139, 4-(1-butyl-1H-indazol-3-yl)phenol] | 329 | 40 | 722 | 36 | 183 | 67
11 | Oc1ccc(-c2nn(-c3ccc(Br)cc3)c3cc(O)ccc23)c(O)c1 [Example 7, 4-[1-(4-bromophenyl)-6-hydroxy-1H-indazol-3-yl]benzene-1,3-di I] | 246 | 77 | 1830 | 54 | 90 | 92
12 | Oc1ccc(-c2nn(Cc3ccccc3)c3c(F)cccc23)cc1 [Example 145, 4-(1-benzyl-7-fluoro-1H-indazol-3-yl)phenol] | 97 | 60 | 439 | 48 | 125 | 66
13 | Oc1ccc(-c2nn(-c3ccc(OC(F)(F)F)cc3)c3cc(O)ccc23)c(O)c1 [Example 13, 4-{6-hydroxy-1-[4-(trifluoromethoxy)phenyl]-1H-indazol-3-yl}benzene-1,3-diol] | 601 | 83 | 828 | 47 | 133 | 97
